Experimental data: patent US11179342B2, “Peptide coacervates and methods of use thereof” (NANYANG TECHNOLOGICAL UNIVERSITY, priority 2018, dated 2021)
Entries after “also recorded” stand apart in the source; their conditions may differ. Residues, ends and D or L forms follow the SMILES beside them.

Key:
[1] = test system: NIH3T3 mouse fibroblasts; assay: MTT assay; format: cell-based
Method: NIH3T3 mouse fibroblasts were used to estimate the cytotoxicity of DgHBP-2 peptide and coacervates. The fibroblasts were cultivated using Dulbecco's modified eagle medium supplemented with 10% of fetal bovine serum, 100 units/mL of penicillin and 100 μg/mL of streptomycin in a 37° C. incubator with 5% CO2. 100 μL of cells with a cell density of 1×10^4 cells/mL were seeded onto a 96-well plate (Thermo Fisher Scientific). After 24 hours, the cell culture media was substituted with 100 μL of fresh media containing different concentration of peptide or insulin-loaded coacervates. After another 24 hours, 10 μL of MTT solution (concentration: 5 mg/mL) was added into each well. Cell culture media and the excess MTT was then removed after 4 hours of incubation. 100 μL of DMSO was subsequently added into each well to dissolve the formazan crystals. The dissolved crystals were then measured at 570 nm on a 96-well microplate reader (Infinity M200, Tecan). Relative cell viability is calculated as:
[formula] where At, Ac, and Ab represent absorbance values of wells containing tested cells, control cells and DMSO, respectively. In Vitro Release Assay (Timepoint Assay)

[2] = cited from earlier work
[3] = Encapsulation of Dox and MNPs by coacervates; format: physicochemical; details: DgHBP-2-peptide coacervates
Method: Dox (Final concentration: 0.04 mg mL^−1) and MNPs (Final concentration: 0.008% v/v) were first added to phosphate buffer (pH 9.5 0.1M) to their final concentrations. DgHBP-2 peptide stock solution (10 mg mL^−1) was successively added to the buffer/drug mixture in a 1:9 ratio to trigger encapsulation and coacervation. Gentle pipetting was then done to mix the final mixture.

[4] = Liquid-liquid phase separation by optical microscopy; format: physicochemical
Method: In Example 2 below, phase separation behavior of protein variants and peptides was studied using a Zeiss Axio Scope A1 microscope (Carl Zeiss Pte Ltd., Germany) in the reflection mode, with differential interference contrast (DIC) filters. Images were taken with an AxioCam MRc 5 camera under the control of AxioVision software.
Liquid-liquid phase separation properties of protein variants and peptides at different buffer conditions were assessed using the method described in (Tan et al, Nat. Chem. Biol. 11, 488-495). Briefly, protein/peptide stock solution (10 mg/mL in 10 mM acetic acid, pH 3.3) was added to a buffer solution in a volume ratio 1:5 (protein/peptide stock:buffer). The mixture was then pipetted onto a microscopy glass slide and imaged using the optical microscope.

[5] = Dynamic light scattering of GY-23 peptide; format: physicochemical
Method: FIGS. 30A-30C. SAXS and DLS of GY-23 peptide. (A) SAXS experimental curves of the peptide before and after coacervation. After LLPS, the dilute and coacervate-rich phases were measured following centrifugation. The q-3 power-law region of the scattering data is highlighted, with the black line a guide for the eye. The calculated fit for the peptide assemblies from the IFT method is also presented as a continuous red line. (B) Corresponding p(r) profile calculated from the SAXS data in (A) using Eq. 1 (materials and methods). (C) Hydrodynamic diameter (DH) measured by DLS of GY-23 in acetic acid (pH 3.3) and after coacervation (pH 7.0).
FIGS. 34A-34B Correlation functions of the DLS measurements of GY-23 peptide before and after coacervation (FIG. 33C) showing the intensity correlation function, C(τ) vs. the correlation time, τ. (A) Sample before coacervation (10 mM in acetic acid, pH 3.3). The curve with a single decay at short correlation times represents a monomodal distribution of rather small particles in the nanometer range. (B) Sample after LLPS (coacervation buffer, pH 7.0).

CC(C)C[C@H](NC(=O)CNC(=O)[C@H](Cc1c[nH]cn1)NC(=O)CNC(=O)[C@H](Cc1ccc(O)cc1)NC(=O)[C@@H]1CCCN1C(=O)CNC(=O)[C@H](Cc1c[nH]cn1)NC(=O)CNC(=O)[C@H](Cc1ccc(O)cc1)NC(=O)[C@@H]1CCCN1C(=O)CNC(=O)[C@H](Cc1c[nH]cn1)NC(=O)CNC(=O)[C@H](Cc1ccc(O)cc1)NC(=O)[C@@H](NC(=O)CNC(=O)[C@H](Cc1c[nH]cn1)NC(=O)CNC(=O)[C@H](Cc1ccc(O)cc1)NC(=O)[C@@H](NC(=O)CNC(=O)[C@H](Cc1c[nH]cn1)NC(=O)CN)C(C)C)C(C)C)C(=O)N[C@@H](Cc1ccc(O)cc1)C(=O)N[C@@H](Cc1c[nH]c2ccccc12)C(=O)O [DgHBP-2 peptide, GHGVYGHGVYGHGPYGHGPYGHGLYW] (H-GHGVYGHGVYGHGPYGHGPYGHGLYW-OH)
cytotoxicity [1]: negligible

COc1cccc2c1C(=O)c1c(O)c3c(c(O)c1C2=O)C[C@@](O)(C(=O)CO)C[C@@H]3O[C@H]1C[C@H](N)[C@H](O)[C@H](C)O1 [Dox, Doxorubicin]
pKa [2]: ~8.46
encapsulation efficiency of Dox [3]: ~40%
unencapsulated Dox [3]: 60%

GHGLY GAGFA GHGLH GFA GHGLY (GHGLYGAGFAGHGLHGFAGHGLY) [GY-23]
morphology of the separated phase ([4]; optical micrographs after LLPS): coacervate micro-droplets suspended in solution as well as a dense hydrogel-like structure; also recorded: micro-droplets as well as hydrogel-like condensed coacervates
ability to undergo LLPS / phase separation ([4]; various pH and salt (NaCl) concentration): phase-separated
hydrodynamic diameter (DH) ([5]; acetic acid (pH 3.3), before LLPS): ca. 8 nm
hydrodynamic diameter (DH) ([5]; pH 7.0, initiation of LLPS): around 50 nm
